Measured values reported in patent US20250214973A1, “1,4,5-TRISUBSTITUTED-1,2,3-TRIAZOLES AND USES THEREOF” (UNIVERSITY OF PUERTO RICO, priority 2022, published 2025).

Experiments:
MDA-MB-231 [1] = assay: Cell viability assay (MTT); type: cell-based; conditions: Homo sapiens, MDA-MB-231; 250 nM for 48 hours (footnote a; title says 500 nM); read-out: % growth inhibition MDA-MB-231
Experimental: Cells plated at equal density were treated at 500 nM of compounds. […]
(§1) Cells plated at equal density were treated at 250 nM of 4c at 250 nM.
(§2) Data from 3 biologic replicates each with 2 technical replicates. Four parameter dose-response curves generated using GraphPad Prism are shown.
Cell viability relative to vehicle (100%) is shown.
(§3) […] Using CellTiter 96 Non-Radioactive Cell Proliferation Assay (Promega, Corp.) according to manufactures' instructions, formazan was used as an indicator of viable cells at an absorbance 570 nm in a Tecan Microplate Reader M100. Data was calculated as fold change from vehicle and fitted using the 4′parameter logic nonlinear regression model in GraphPad Prism software. (n=3 biologic replicates: with 3 technical replicates each).
A range of compounds were tested by MTT assays for cell viability in MDA-MB-231 triple negative breast cancer (TNBC) cells and MDA-MB-435 HER2++ cancer cells.

Rac = Rac activation pulldown (GST-CRIB of PAK) in MDA-MB-435 cells; type: cell-based, human; conditions: 250 nM, 24 hours
From the text: (§4) Cells were lysed and equal amounts of proteins were subjected to pull-down assays using a GST-fusion protein of the Cdc42-rac interactive binding (CRIB) domain of P21-activated kinase (PAK). The pulldowns of Rac.GTP and whole cell lysates were western blotted with a pan Rac1/2/3 antibody.
as §4

MDA-MB-435 [2] = assay: Cell viability assay (MTT); type: cell-based, human; conditions: for effect on viability of MDA-MB-435 / GI50: 0-1000 nM; for effect on viability of MDA-MB-435: 72 h; for GI50: MTT, 72 hrs, read-out: GI50 MDA-MB-435
Experimental: Cells plated at equal density were treated at 500 nM of compounds. After 72 hours, cell viability was measured by a MTT assay. n=3; * p<0.05, ** p<0.01, *** p<0.001.
as §1, §2
[…]. GI50 was calculated using Graph pad Prism.
as §3
A range of compounds were tested by MTT assays for cell viability in MDA-MB-231 triple negative breast cancer (TNBC) cells and MDA-MB-435 HER2++ cancer cells. […].

MCF-7 = assay: Initial screening, SRB assay GI50; type: cell-based; conditions: Homo sapiens, MCF7, 48 hrs
Experimental: (§5) For initial screening, the GIso of compounds 4a-4h in the cell lines MDA-MB-231, MDA-MB-435 and MCF-7 was determined via the SRB-assay for 48 hrs as follows:
(§6) A stock solution of compounds was prepared at 50 mM in 100% DMSO. For cells preparation, a flask of 75 cm^2 or 25 cm^2 were used for 2.6×10^5 cells/mL or 1.44×10^5 cells/mL, respectively, with an 80-90% of confluence. Cells were washed with PBS and trypsinized. The concentration of cells was determined using a 1:2 dilutions with Trypan Blue and a hemocytometer. After cell count, the concentration was adjusted to have a 7.0-10.0×10^4 cells/mL. Approximately 100 μL of cells suspension, compounds, control positive and control negative were added in triplicates to a 96 well plate. Positive control used was doxorubicin, and the negative control was DMSO 0.1%. All compounds (4a-h) at 50, 25, 12.5, 6.3, and 1.6 μM were incubated with cells at 37° C. for 48 hrs. For fixation, cold TCA 50% was used and incubated at 4° C. for 1 h. Wells were washed and dried prior to tincture with 100 μL of SRB 0.4%. To remove excess of SRB, acetic acid was used. For analysis, TRIS-BASE Solution (pH=10.5) was used and shaken prior to reading using an ELISA reader at 540 nm and the software SoftMax Pro 4.8. For each compound, 50% growth inhibition (GI50) was calculated from Sigmoidal dose-response curves (variable-slope) that were generated with data obtained from experiments carried out in triplicates (GI50 values were generated with GraphPad Prism V. 6.02, GraphPad Software, Inc.).

MDA-MB-435 [3] = assay: Initial screening, SRB assay GI50; type: cell-based; conditions: Homo sapiens, 48 hrs, read-out: MDA-MB435 GI50
Experimental: as §5, §6

MDA-MB-231 [4] = assay: Initial screening, SRB assay GI50; type: cell-based; conditions: Homo sapiens, 48 hrs
Experimental: as §5, §6

MDA-MB-231 [5] = assay: Initial screening, inhibition of migration (wound gap); type: cell-based; conditions: Homo sapiens; for inhibition at 0.5 µM: read-out: Inh. of migration (converted)
Experimental: In addition, the inhibition of migration of MDA-MB-231 was determined via the following procedure:
Prior to assays, cells were grown until 80-90% confluence was observed. We used a 75 cm^2 flask for 2.6×10^5 cells/mL in 10 mL and for a 25 cm^2 flask 1.44×10^5 cells/mL in 5 mL. The cells were washed with PBS to remove all traces of FBS. We added 2 mL for a 25 cm^2 flasks or 4 mL for a 75 cm^2 flasks trypsin, and incubated 5-10 min at 37° C. At the end of the incubation time, cells were re-suspended and counted with hemocytometer using 1:2 dilutions with Trypan blue. Subsequently, cell viability was calculated. In a 12 well tissue culture plate, we used the plastic pattern to draw a fine space with a fine marker on the bottom of the plate. Cells were seeded at 1.5-2.2×10^5 cells/mL in 1 mL and incubated for 24 h. Cells were then rinsed with PBS and incubated in starving media (0.5% FBS) overnight. All controls and drugs were tested in triplicate. The negative control for each drug was prepared according to the drug's DMSO concentration. […] The wound was made using a sterile pipette tip of 200 μL. Cells were then rinsed very gently with media without FBS and media with negative controls was added. After a 24 h incubation, the gap distance was evaluated using the software Lumera Infinity Analyze 6.4.0. Pictures were taken at 0, 8, 12 and 24 h using a 10× objective in an Inverted Laboratory Microscope Leica DM IL LED, and an Infinity1-3 3.1 Megapixel USB 2.0 camera CMOS. The percentage of migration was calculated using the following formula: […]

## CCn1c2ccccc2c2cc(-n3nnc(C(=O)NCCCN4CCOCC4)c3-c3ccccc3)ccc21 [Compound 9, 1-(9-ethyl-9H-carbazol-3-yl)-N-(3-morpholinopropyl)-5-phenyl-1H-1,2,3-triazole-4-carboxamide]
MDA-MB-231 [1]
  inhibition at […]: 13%
Rac
  % Rac inhibition: 250 nM : <20%
MDA-MB-435 [2]
  effect on viability of MDA-MB-435: reduced the viability
MDA-MB-435 [2]; Homo sapiens, MDA-MB-435
  GI50: > 10 µM

## CCn1c2ccccc2c2cc(-n3nnc(C(O)c4ccc(C)cc4)c3-c3ccccc3)ccc21 (stereo not drawn) [Compound 4g, (1-(9-ethyl-9H-carbazol-3-yl)-5-phenyl-1H-1,2,3-triazol-4-yl) (p-tolyl) methanol]
MCF-7
  GI50: 13.5 µM
MDA-MB-435 [3]
  GI50: 2.2 µM
MDA-MB-231 [4]
  GI50: 7.9 µM
MDA-MB-231 [5]; at 1.6 μM, read-out: Inh. of migration
  inhibition at 1.6 µM: 15.1 ± 10.7%

## CCn1c2ccccc2c2cc(-n3nnc(C(=O)c4cccs4)c3-c3ccccc3)ccc21 [Compound 10, (1-(9-Ethyl-9H-carbazol-3-yl)-5-phenyl-1H-[1,2,3]triazol-4-yl)-thiophen-2-yl-methanone]
MCF-7
  GI50: 0.19 µM
MDA-MB-435 [3]
  GI50: 23.3 µM
MDA-MB-231 [4]
  GI50: 0.915 µM

## CCn1c2ccccc2c2cc(-n3nnc(C(=O)N4CCOCC4)c3-c3ccccc3)ccc21 [Compound 8, (1-(9-ethyl-9H-carbazol-3-yl)-5-phenyl-1H-1,2,3-triazol-4-yl) (morpholino) methanone]
MDA-MB-231 [1]
  inhibition at […]: -11%
Rac
  % Rac inhibition: 250 nM : <20%
MDA-MB-435 [2]
  effect on viability of MDA-MB-435: did not have an effect
MDA-MB-435 [2]; Homo sapiens, MDA-MB-435
  GI50: ~1 µM

## CCn1c2ccccc2c2cc(-n3nnc(C(O)c4ccc(OC)cc4)c3-c3ccccc3)ccc21 (stereo not drawn) [Compound 4e, (1-(9-ethyl-9H-carbazol-3-yl)-5-phenyl-1H-1,2,3-triazol-4-yl) (4-methoxyphenyl) methanol]
MCF-7
  GI50: 10.6 µM
MDA-MB-435 [3]
  GI50: 32.9 µM
MDA-MB-231 [4]
  GI50: 26.2 µM
MDA-MB-231 [5]
  inhibition at 0.5 µM: 36.1%
MDA-MB-231 [5]; at 5.3 μM, read-out: Inh. of migration
  inhibition at 5.3 µM: 57 ± 12.3%

## CCn1c2ccccc2c2cc(-n3nnc(C(=O)O)c3-c3ccccc3)ccc21 [Compound 7, 1-(9-Ethyl-9H-carbazol-3-yl)-5-phenyl-1H-1,2,3-triazole-4-carboxylic acid]
MDA-MB-231 [1]
  inhibition at […]: 29%
MDA-MB-435 [2]
  effect on viability of MDA-MB-435: reduced the viability

## CCn1c2ccccc2c2cc(-n3nnc(C(O)c4ccco4)c3-c3ccccc3)ccc21 (stereo not drawn) [Compound 4a, (1-(9-ethyl-9H-carbazol-3-yl)-5-phenyl-1H-1,2,3-triazol-4-yl) (furan-2-yl) methanol]
MCF-7
  GI50: 20.6 µM
MDA-MB-435 [3]
  GI50: 0.36 µM
MDA-MB-231 [4]
  GI50: 17.5 µM
MDA-MB-435 [2]; Homo sapiens, MDA-MB-435, 500 nM, 72 hours, read-out: decrease in cell viability, MDA-MB-435
  cytotoxicity at 0.5 µM: ~80%
MDA-MB-231 [5]; at 6.6 μM, read-out: Inh. of migration
  inhibition at 6.6 µM: 55 ± 13.6%

## CCn1c2ccccc2c2cc(-n3nnc(C(O)c4cccs4)c3-c3ccccc3)ccc21 (stereo not drawn) [Compound 4d, (1-(9-ethyl-9H-carbazol-3-yl)-5-phenyl-1H-1,2,3-triazol-4-yl) (thiophen-2-yl) methanol]
MCF-7
  GI50: 12 µM
MDA-MB-435 [3]
  GI50: 19.6 µM
MDA-MB-231 [4]
  GI50: 20.4 µM
MDA-MB-231 [5]
  inhibition at 0.5 µM: 8.7%
MDA-MB-231 [5]; at 4.1 μM, read-out: Inh. of migration
  inhibition at 4.1 µM: 57.5 ± 10.6%

## CCn1c2ccccc2c2cc(-n3nnc(C(O)c4ccccc4)c3-c3ccccc3)ccc21 (stereo not drawn) [Compound 4h, (1-(9-ethyl-9H-carbazol-3-yl)-5-phenyl-1H-1,2,3-triazol-4-yl) (phenyl) methanol]
MCF-7
  GI50: 9.6 µM
MDA-MB-435 [3]
  GI50: 22.6 µM
MDA-MB-231 [4]
  GI50: 24.3 µM
MDA-MB-231 [5]
  inhibition at 0.5 µM: 11.1%
MDA-MB-231 [5]; at 4.9 μM, read-out: Inh. of migration
  inhibition at 4.9 µM: 65.4 ± 11.9%

## CCn1c2ccccc2c2cc(-n3nnc(C(O)c4ccc([N+](=O)[O-])cc4)c3-c3ccccc3)ccc21 (stereo not drawn) [Compound 4f, (1-(9-ethyl-9H-carbazol-3-yl)-5-phenyl-1H-1,2,3-triazol-4-yl) (4-nitrophenyl) methanol]
MCF-7
  GI50: 9.7 µM
MDA-MB-435 [3]
  GI50: 7.5 µM
MDA-MB-231 [4]
  GI50: 11.2 µM
MDA-MB-231 [5]
  inhibition at 0.5 µM: 22.1%
MDA-MB-231 [5]; at 2.2 μM, read-out: Inh. of migration
  inhibition at 2.2 µM: 61.1 ± 6.12%

## CCOC(=O)c1nnn(-c2ccc3c(c2)c2ccccc2n3CC)c1-c1ccccc1 [Compound 6, Ethyl 1-(9-ethyl-9H-carbazol-3-yl)-5-phenyl-1H-1,2,3-triazole-4-carboxylate]
MDA-MB-231 [1]
  inhibition at […]: 32%
MDA-MB-435 [2]
  effect on viability of MDA-MB-435: reduced the viability
MDA-MB-435 [2]; Homo sapiens, MDA-MB-435
  GI50: ~5 µM
